Results: PubChem BioAssay (NCI)
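The concentration for 50% growth inhibition is given as GI50. TGI marks complete inhibition of growth.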

Columns and labels:
Test in all cases: growth of human tumour cells (NCI), 384-well format
786-0 renal = tested on: 786-0 renal
A498 renal = tested on: A498 renal
A549 NSCLC = tested on: A549 NSCLC
ACHN renal = tested on: ACHN renal
BT-549 breast = tested on: BT-549 breast
CAKI-1 renal = tested on: CAKI-1 renal
CCRF-CEM leukemia = tested on: CCRF-CEM leukemia
COLO 205 colon = tested on: COLO 205 colon
DU-145 prostate = tested on: DU-145 prostate
EKVX NSCLC = tested on: EKVX NSCLC
HCC-2998 colon = tested on: HCC-2998 colon
HCT-15 colon = tested on: HCT-15 colon
HL-60(TB) leukemia = tested on: HL-60(TB) leukemia
HOP-62 NSCLC = tested on: HOP-62 NSCLC
HOP-92 NSCLC = tested on: HOP-92 NSCLC
HS 578T breast = tested on: HS 578T breast
HT29 colon = tested on: HT29 colon
IGROV1 ovarian = tested on: IGROV1 ovarian
K-562 leukemia = tested on: K-562 leukemia
KM12 colon = tested on: KM12 colon
LOX IMVI melanoma = tested on: LOX IMVI melanoma
M14 melanoma = tested on: M14 melanoma
MALME-3M melanoma = tested on: MALME-3M melanoma
MCF7 breast = tested on: MCF7 breast
MDA-MB-231 breast = tested on: MDA-MB-231 breast
MDA-MB-435 melanoma = tested on: MDA-MB-435 melanoma
MDA-MB-468 breast = tested on: MDA-MB-468 breast
MOLT-4 leukemia = tested on: MOLT-4 leukemia
NCI-H226 lung = tested on: NCI-H226 lung
NCI-H23 lung = tested on: NCI-H23 lung
NCI-H322M lung = tested on: NCI-H322M lung
NCI-H460 NSCLC = tested on: NCI-H460 NSCLC
NCI-H522 lung = tested on: NCI-H522 lung
NCI/ADR-RES ovarian = tested on: NCI/ADR-RES ovarian
OVCAR-3 ovarian = tested on: OVCAR-3 ovarian
OVCAR-4 ovarian = tested on: OVCAR-4 ovarian
OVCAR-5 ovarian = tested on: OVCAR-5 ovarian
OVCAR-8 ovarian = tested on: OVCAR-8 ovarian
PC-3 prostate = tested on: PC-3 prostate
RPMI-8226 leukemia = tested on: RPMI-8226 leukemia
RXF 393 renal = tested on: RXF 393 renal
SF-268 CNS = tested on: SF-268 CNS
SF-295 CNS = tested on: SF-295 CNS
SF-539 CNS = tested on: SF-539 CNS
SK-MEL-28 melanoma = tested on: SK-MEL-28 melanoma
SK-MEL-5 melanoma = tested on: SK-MEL-5 melanoma
SK-OV-3 ovarian = tested on: SK-OV-3 ovarian
SN12C renal = tested on: SN12C renal
SNB-19 CNS = tested on: SNB-19 CNS
SNB-75 CNS = tested on: SNB-75 CNS
SR leukemia = tested on: SR leukemia
SW-620 colon = tested on: SW-620 colon
T-47D breast = tested on: T-47D breast
TK-10 renal = tested on: TK-10 renal
U251 glioblastoma = tested on: U251 glioblastoma
UACC-257 melanoma = tested on: UACC-257 melanoma
UACC-62 melanoma = tested on: UACC-62 melanoma
UO-31 renal = tested on: UO-31 renal

SMILES: NC(N)=Nc1ccc(-n2nc(C(F)(F)F)cc2-c2ccc3c(ccc4ccccc43)c2)cc1
- GI50 ([…]-0 renal): 1620 nM
- TGI (786-0 renal): 2980 nM
- GI50 (A498 renal): 1550 nM
- TGI (A498 renal): 2900 nM
- GI50 (A549 NSCLC): 1740 nM
- TGI (A549 NSCLC): 3130 nM
- GI50 (ACHN renal): 1840 nM
- TGI (ACHN renal): 3250 nM
- GI50 (BT-549 breast): 1750 nM
- TGI (BT-549 breast): 3140 nM
- GI50 (CAKI-1 renal): 1740 nM
- TGI (CAKI-1 renal): 3140 nM
- GI50 (CCRF-CEM leukemia): 1110 nM
- TGI (CCRF-CEM leukemia): 2310 nM
- GI50 (COLO 205 colon): 1300 nM
- TGI (COLO 205 colon): 2580 nM
- GI50 (DU-145 prostate): 1850 nM
- TGI (DU-145 prostate): 3270 nM
- GI50 (EKVX NSCLC): 1720 nM
- TGI (EKVX NSCLC): 3100 nM
- GI50 (HCC-2998 colon): 736 nM
- TGI (HCC-2998 colon): 2030 nM
- GI50 (HCT-15 colon): 1530 nM
- TGI (HCT-15 colon): 2890 nM
- GI50 (HL-60(TB) leukemia): 838 nM
- TGI (HL-60(TB) leukemia): 2070 nM
- GI50 (HOP-62 NSCLC): 1770 nM
- TGI (HOP-62 NSCLC): 3170 nM
- GI50 (HOP-92 NSCLC): 1390 nM
- TGI (HOP-92 NSCLC): 2700 nM
- GI50 (HS 578T breast): 1770 nM
- TGI (HS 578T breast): 3160 nM
- GI50 (HT29 colon): 1740 nM
- TGI (HT29 colon): 3140 nM
- GI50 (IGROV1 ovarian): 1820 nM
- TGI (IGROV1 ovarian): 3230 nM
- GI50 (K-562 leukemia): 1570 nM
- TGI (K-562 leukemia): 2920 nM
- GI50 (KM12 colon): 1470 nM
- TGI (KM12 colon): 2800 nM
- GI50 (LOX IMVI melanoma): 1530 nM
- TGI (LOX IMVI melanoma): 2870 nM
- GI50 (M14 melanoma): 1740 nM
- TGI (M14 melanoma): 3140 nM
- GI50 (MALME-3M melanoma): 1650 nM
- TGI (MALME-3M melanoma): 3020 nM
- GI50 (MCF7 breast): 1250 nM
- TGI (MCF7 breast): 2520 nM
- GI50 (MDA-MB-231 breast): 1570 nM
- TGI (MDA-MB-231 breast): 2930 nM
- GI50 (MDA-MB-435 melanoma): 1850 nM
- TGI (MDA-MB-435 melanoma): 3260 nM
- GI50 (MDA-MB-468 breast): 2020 nM
- TGI (MDA-MB-468 breast): 3450 nM
- GI50 (MOLT-4 leukemia): 1440 nM
- TGI (MOLT-4 leukemia): 2750 nM
- GI50 (NCI-H226 lung): 1640 nM
- TGI (NCI-H226 lung): 3010 nM
- GI50 (NCI-H23 lung): 1630 nM
- TGI (NCI-H23 lung): 2990 nM
- GI50 (NCI-H322M lung): 1650 nM
- TGI (NCI-H322M lung): 3020 nM
- GI50 (NCI-H460 NSCLC): 1690 nM
- TGI (NCI-H460 NSCLC): 3070 nM
- GI50 (NCI-H522 lung): 1780 nM
- TGI (NCI-H522 lung): 3180 nM
- GI50 (NCI/ADR-RES ovarian): 2380 nM
- TGI (NCI/ADR-RES ovarian): 4830 nM
- GI50 (OVCAR-3 ovarian): 1840 nM
- TGI (OVCAR-3 ovarian): 3260 nM
- GI50 (OVCAR-4 ovarian): 1610 nM
- TGI (OVCAR-4 ovarian): 2970 nM
- GI50 (OVCAR-5 ovarian): 1880 nM
- TGI (OVCAR-5 ovarian): 3290 nM
- GI50 (OVCAR-8 ovarian): 1830 nM
- TGI (OVCAR-8 ovarian): 3230 nM
- GI50 (PC-3 prostate): 1720 nM
- TGI (PC-3 prostate): 3110 nM
- GI50 (RPMI-8226 leukemia): 1310 nM
- TGI (RPMI-8226 leukemia): 2590 nM
- GI50 (RXF 393 renal): 1590 nM
- TGI (RXF 393 renal): 2930 nM
- GI50 (SF-268 CNS): 1830 nM
- TGI (SF-268 CNS): 3240 nM
- GI50 (SF-295 CNS): 1840 nM
- TGI (SF-295 CNS): 3250 nM
- GI50 (SF-539 CNS): 1860 nM
- TGI (SF-539 CNS): 3270 nM
- GI50 (SK-MEL-28 melanoma): 1780 nM
- TGI (SK-MEL-28 melanoma): 3170 nM
- GI50 (SK-MEL-5 melanoma): 1830 nM
- TGI (SK-MEL-5 melanoma): 3220 nM
- GI50 (SK-OV-3 ovarian): 1620 nM
- TGI (SK-OV-3 ovarian): 2980 nM
- GI50 (SN12C renal): 1810 nM
- TGI (SN12C renal): 3220 nM
- GI50 (SNB-19 CNS): 1770 nM
- TGI (SNB-19 CNS): 3170 nM
- GI50 (SNB-75 CNS): 1760 nM
- TGI (SNB-75 CNS): 3150 nM
- GI50 (SR leukemia): 765 nM
- TGI (SR leukemia): 2020 nM
- GI50 (SW-620 colon): 1820 nM
- TGI (SW-620 colon): 3230 nM
- GI50 (T-47D breast): 1760 nM
- TGI (T-47D breast): 3150 nM
- GI50 (TK-10 renal): 1810 nM
- TGI (TK-10 renal): 3210 nM
- GI50 (U251 glioblastoma): 1840 nM
- TGI (U251 glioblastoma): 3270 nM
- GI50 (UACC-257 melanoma): 1950 nM
- TGI (UACC-257 melanoma): 3370 nM
- GI50 (UACC-62 melanoma): 1740 nM
- TGI (UACC-62 melanoma): 3130 nM
- GI50 (UO-31 renal): 1780 nM
- TGI (UO-31 renal): 3200 nM
